{"source": "patent US20090227671A1", "about": "“Prevention and treatment of atherosclerosis with lithospermate B” (Industry-Academic Cooperation Foundation, priority 2005, published 2009)", "key": {"[1]": {"system": "vascular smooth muscle cells", "assay": "Cytotoxicity of LAB in VSMC", "type": "cell-based, Sprague-Dawley rats", "conditions": "LAB up to 30 μM", "protocol": "The VSMC was treated in a culture medium not containing serum for 24 hrs prior to treatment with PDGF-BB, and the reaction according to the presence or absence of PDGF-BB was analyzed after pretreating with LAB or other reagents.\nTo investigate whether LAB decreases the proliferation of VSMC induced by PDGF-BB an experiment was performed as follows. The VSMC was placed in a culture medium not containing serum for 24 hrs to inhibit cell proliferation, and then pretreated with LAB with various concentrations of 1, 5, 10, 20, 30 μM and treated with PDGF-BB for 24 hrs. The extent of VSMC proliferation was compared with that of control as stated above via LDH and MTT assays (FIG. 1)."}, "[2]": {"system": "vascular smooth muscle cells", "assay": "VSMC migration induced by PDGF-BB (modified Boyden chamber)", "type": "cell-based, Sprague-Dawley rats", "conditions": "pretreated with LAB, various concentrations; 16 hrs", "protocol": "The migration of VSMC with 8 μm of pores was measured by using modified Boyden chamber method [Brown C, Pan X, Hassid A. Nitric oxide and C-type atrial natriuretic peptide stimulate primary aortic smooth muscle cell migration via a cGMP-dependent mechanism: relationship to microfilament dissociation and altered cell morphology. Circ Res. Apr. 2 1999; 84(6):655-667], which utilizes collagen-coated transwell tissue culture inserts consisting of polycarbonate membrane. 3.0×10^6 cells/mL of the above vascular smooth muscle cells were allowed to float in a culture medium without serum, treated with LAB with various concentrations and then cultured at 37° C. for 30 min. Then, the cells were treated with either 0.5 mL DMEM without serum or 0.5 mL DMEM without serum along with PDGF-BB 10 ng/mL and then placed in the lower part of a chamber. 100 μL of the folating materials of the above cells (final 3.0×10^5 cells/well) was added to the upper part of the chamber and cultured at 37° C. for 16 hrs. The cells were then fixed, dyed with hematoxylin, and filters were dried and developed.\nIt is known that […] plays an important role in proliferation of VSMC as well as development of atherosclerosis. To investigate whether LAB decreases the migration of VSMC induced by PDGF-BB, an experiment was performed as follows by using the aforementioned modified Boyden chamber method."}, "ERK1/2": {"system": "ERK1/2", "assay": "Western blot of ERK1/2 phosphorylation in VSMC induced by PDGF-BB", "type": "cell-based, Sprague-Dawley rats", "protocol": "(§1) VSMC was washed with PBS and then dissolved in lysis buffer (25 mM Tris HCl, pH 7.4, 25 mM NaCl, 25 mM NaF, 25 mM sodium pyrophosphate, 1 mM sodium vanadate, 2.5 mM EDTA, 2.5 mM EGTA, 0.05% (wt/vol) Triton X-100, 0.5% (wt/vol) SDS, 0.5% (wt/vol) deoxycholate, 0.5% (wt/vol) Nonidet P-40, […], and 1 mM PMSF). The cells were collected and centrifuged at 13,000 rpm for 15 min and the protein concentration of the resulting supernatant was measured by Bradford assay. The proteins were denatured and were subjected to SDS-PAGE and then blotted onto nitrocellulose membranes. The membranes were placed in 5% (w/v) non-fat dry milk in TBS with 0.1% Tween20 (TBS-T) and then placed at room temperature for 3 hrs. The blots were placed at 4° C. along with anti-ERK1/2 or anti-Akt antibodies (Cell signaling Technologh, Berely. Mass., USA) for 16 hrs. The membranes were washed 4 times with TBS-T, added with anti-rabbit IgG antibody conjugated with horseradish peroxidase (1:2,000 diluent) and then placed at room temperature for 1 hr. The immunoreactive bands detected by ECL reagents were developed by Hyperfilm-ECL (Amersham Life Science, Little Chalfont, UK). The bands showing positive responses were quantitated by densitometry and then compared with that of control.\n(§2) In FIG. 1B, it is shown that both U0126 (20 μM) and LY294002 (40 μM) inhibited activities of LDH and MTT induced by PDGF-BB. As a way to investigate the signal transduction pathway involved in VSMC proliferation induced by PDGF-BB, an experiment was conducted to examine whether PDGF-BB activates a relatively lower signal transduction pathway such as ERK1/2 and Akt."}, "Akt": {"system": "Akt", "assay": "Western blot of Akt phosphorylation in VSMC induced by PDGF-BB", "type": "cell-based, Sprague-Dawley rats", "protocol": "as §1, §2"}, "[3]": {"system": "common carotid arteries after balloon injury", "assay": "Neointimal hyperplasia in balloon-injured carotid artery animal model", "type": "in vivo, Sprague-Dawley rats", "conditions": "LAB 10 mg/kg/day from 2 days prior to PTA, compared with placebo", "excerpt": "Two French Forgarty embolectomy catheters were inserted into white male Sprague-Dawley (300 g) through external carotid arteries, and blood vessels were intentionally damaged by moving catheters, which were swollen by adding a physiological saline solution, 3 times vertically within the common carotid thereby expanding blood vessels while shedding off the endothelial cells. A total of 30 rats were divided into 3 groups (10 rats/group) and used in this experiment: group 1 was not treated; group 2 was damaged with their blood vessels; and group 3 was treated with LAB and then damaged with their blood vessels. LAB (10 mg/kg/day) was injected intravenously for a period of 30 days (i.e., from 2 days prior to the blood vessel damage to 28 days after the blood vessel damage). The rats were sacrificed on the 28th day after the blood vessel damage by ablating carotid artery and it was fixed with 4% formaldehyde and then dyed with hematoxylineosin. The mid parts of the damaged blood vessel were cut into 2-4 parts and analyzed via computerized morphometry (SCN Image). […]\nWhite Sprague-Dawley rats were damaged by using percutaneous transluminal angioplastyas (‘PTA’) as stated above. […] On the 2oth day after the surgery the rats were sacrificed and the Intima-Media Thickness (‘IMT’) was measured."}, "[4]": {"assay": "Acute toxicity due to oral administration in SD rats", "type": "in vivo", "conditions": "SD, rat, in vivo, 1 g/kg; oral, single administration", "protocol": "(§3) Acute toxicity test was performed using 6 week old SPF SD rats. The SD rats were divided two per each group and each rat was orally administered once with LAB in the amount of 1 g/kg/1 mL, which was suspended in 0.5% methylcellulose. After the above administration, the rats were subjected to examination with regard to survival, clinical symptoms, change in body weight, and the like and also hematological examination, biochemical blood test. Further, autopsies were performed to observe abnormalities in abdominal organs."}, "SD rats": {"system": "SD rats", "assay": "Acute toxicity due to oral administration in SD rats", "type": "in vivo", "protocol": "as §3"}}}
{"smiles": "O=C(/C=C/c1ccc(O)c2c1[C@H](C(=O)O[C@H](Cc1ccc(O)c(O)c1)C(=O)[O-])[C@@H](c1ccc(O)c(O)c1)O2)O[C@H](Cc1ccc(O)c(O)c1)C(=O)[O-].[Mg+2]", "note": "[LAB, lithospermate B]", "values": [{"measurement": "adverse reaction in VSMC", "setting": "[1]; highest concentration", "value": "no adverse reaction observed"}, {"measurement": "cytotoxic activities", "setting": "[1]; data not shown", "value": "no cytotoxic activities observed"}, {"measurement": "migration of VSMC induced by PDGF-BB", "setting": "[2]", "value": "decreased in proportion to the concentration"}, {"measurement": "decrease of ERK1/2 phosphorylation", "setting": "ERK1/2; 30 μM LAB, 20 mM NAC, 1 h, then PDGF-BB 10 min, FIG. 5C", "value": 0.8, "unit": "fold"}, {"measurement": "phosphorylation of ERK1/2 due to PDGF-BB", "setting": "ERK1/2; LAB 1, 5, 10, 20, 30 μM for 1 h, PDGF-BB 10 min, FIG. 5B", "value": "inhibits"}, {"measurement": "most effective concentration, inhibition of ERK1/2 phosphorylation", "setting": "ERK1/2; PDGF-BB 10 ng/mL", "value": 30, "unit": "µM"}, {"measurement": "decrease of Akt phosphorylation", "setting": "Akt; 30 μM LAB, 20 mM NAC, 40 μM LY294002, 1 h, then PDGF-BB 10 min, FIG. 4C", "value": 8, "unit": "folds"}, {"measurement": "phosphorylation of Akt due to PDGF-BB", "setting": "Akt; LAB 1, 5, 10, 20, 30 μM for 1 h, PDGF-BB 10 min, FIG. 4B", "value": "inhibits"}, {"measurement": "most effective concentration, inhibition of Akt phosphorylation", "setting": "Akt; PDGF-BB 10 ng/mL", "value": 30, "unit": "µM"}, {"measurement": "increase in Intima-Media Thickness (IMT)", "setting": "[3]", "value": "much low"}, {"measurement": "LD50", "setting": "[4]", "value": "> 500", "unit": "mg/kg"}, {"measurement": "dose without toxicity to rats", "setting": "SD rats; oral, single administration", "value": "up to 500 mg/kg"}, {"measurement": "survival", "setting": "SD rats; single oral dose 1 g/kg in 0.5% methylcellulose", "value": "all experimental rats survived"}, {"measurement": "clinical symptoms, toxicities and other abnormalities", "setting": "SD rats; single oral dose 1 g/kg, body weight, hematology, blood biochemistry, autopsy", "value": "no abnormal clinical symptoms, no toxicities and other abnormalities"}]}
